US12343404B2, “Ligand-targeted cell conjugate (LTCC)-based anti-tumor immune cell” (priority 2020, dated 2025)

System: NK92-MI cells
Experiment: Influence of azido sugar on NK cell activity (CCK8, OD450)
Format: cell-based
Conditions: final concentration 50 μM; 24 hours and 48 hours; vs 0.1% DMSO control
Method: This embodiment describes validation of influences of the added non-natural sugars on cell activities. The specific method is as follows: non-natural sugars were absorbed by cells; the cells were cultured for a period of time; then, OD450 was determined using a cell counting kit 8 (CCK8) (Beyotime), and a difference in cell activities of a group added with sugars and a group without sugars was analyzed.
The specific process is as follows: 1×10^5 pieces of NK cells were laid in a 96-pore plates; 0.1% DMSO was added into a control group, while Ac4ManNAz with a final concentration of 50 μM (the mount of the DMSO was equivalent to 0.1%) was added into an experimental group; then, the cells were cultured in an incubator at 37° C., and subsequently added with the CCK8 after 24 hours and 48 hours respectively; and after 2-hour incubation, OD450 was detected using a microplate reader.

SMILES: CC(=O)OC[C@H]1OC(OC(C)=O)[C@@H](NC(=O)CN=[N+]=[N-])[C@@H](OC(C)=O)[C@@H]1OC(C)=O (stereo partly shown) [Ac4ManNAz, N-azidoacetylmannosamine-tetraacylated]
- influence on cell activities (OD450, CCK8): not toxic to cells, but slightly promoted growth
